Data taken from US12269813B2, “Crystalline form of 1-(1-oxo-1,2-dihydroisoquinolin-5-yl)-5-(trifluoromethyl)-N-(2-(trifluoromethyl)pyridin-4-yl)-1H-pyrazole-4-carboxamide monohydrate” (Janssen Pharmaceutica NV, priority 2019, dated 2025).
“Also recorded” adds a separate entry of the source.

Assays:
[1] = Moisture sorption analysis (dynamic vapor sorption, DVS); assay type: physicochemical; conditions: for hygroscopic behaviour: DVS, 0 to 95% RH at 25° C.; for loss of hydration water at low relative humidity: RH of 20% or less
Description: The moisture sorption analysis (DVS) was performed using a Surface Measurement Systems Advantage-1 dynamic vapor sorption apparatus. The moisture profile was evaluated by monitoring vapor adsorption/desorption over the range of 0 to 95% relative humidity at 25° C. The moisture profile consisted of 2 cycles of vapor adsorption/desorption.

[2] = Physical stability study with respect to water loss or uptake (water content by coulometric Karl Fischer); assay type: physicochemical
Description: The physical stability of Compound A monohydrate, Form III with respect to water loss or uptake was tested.
For the initial study, 0.5 g samples of monohydrate Form III were placed in double antistatic colourless LDPE bags and sealed.
For the long-term study (stability after 1 month and 3 months), 1.5 g samples of monohydrate Form III were placed in double antistatic colourless LDPE bags and sealed. The samples were stored at 30±2° C./75±5% RH and 40±2° C./75±5% RH in cardboard drums.
For the photostability study, 1.5 g of monohydrate Form III was placed into a petri dish and spread into a layer of no more than 3 mm thick. The petri dish was covered with quartz coverslips and sealed with parafilm. The photostability testing was carried out in line with ICH Q1B option 2 (ICH Harmonised Tripartite Guideline, Stability testing: Photostability testing of new drug substances and products, Q1B, Step 4 version, 6 Nov. 1996). Photostability samples were stored under separate lamps emitting visible and UV-A light, such that the total exposure was not less than 1.2 million lux hours and 200 Watt hours/m^2, respectively.
The water content of each of the samples was determined using a vaporized coulometric Karl Fischer method, in accordance with the US Pharmacopeia (USP <921> method IC; most recently appeared in Pharmacopeial Forum: Volume No. 38(1); Page information USP42/NF37-7092) and European Pharmacopeia 2.5.32 (Edition 10.0).

hygroscopic behaviour ([1]; monohydrate)	water uptake ([1]; at 80% relative humidity)	Water content (%) ([2]; 30° C./75% RH, 1 month)	Water content (%) ([2]; 30° C./75% RH, 3 months)	Water content (%) ([2]; 40° C./75% RH, 1 month)	Water content (%) ([2]; 40° C./75% RH, 3 months)	Water content (%) ([2]; Initial)	hygroscopic character concluded from the stability study ([2]; Table 3 storage conditions)	Water content (%) ([2]; photostability, 1 × ICH option 2)	hygroscopic behaviour [1]	loss of hydration water at low relative humidity [1]	moisture adsorbed ([1]; humidity range 0-20% RH)	moisture adsorption and desorption ([1]; humidity range 20-95% RH, slow and reversible) [%]	weight loss during the initial drying step (DVS change in mass plot) ([1]; initial drying step) [%]	SMILES	loss of hydration water at low relative humidity ([1]; monohydrate)	solid-state form change after the DVS test (XRPD pattern and IR spectrum) ([1]; fraction obtained after the DVS test vs starting material)
non-hygroscopic	less than 0.2%	3.3	3.8	3.3	3.2	3.4	non-hygroscopic	3.4						O=C(Nc1ccnc(C(F)(F)F)c1)c1cnn(-c2cccc3c(=O)[nH]ccc23)c1C(F)(F)F [Form III, 1-(1-oxo-1,2 dihydroisoquinolin-5-yl)-5-(trifluoromethyl)-N-(2-(trifluoromethyl)pyridin-4-yl)-1H-pyrazole-4-carboxamide (Compound A) monohydrate]	does not lose water; also recorded: avoids loss of water	
									hygroscopic	lost at RH of 20% and less	4.1-4.2%	1.8	~2.7	O=C(Nc1ccnc(C(F)(F)F)c1)c1cnn(-c2cccc3c(=O)[nH]ccc23)c1C(F)(F)F [Form I, 1-(1-oxo-1,2-dihydroisoquinolin-5-yl)-5-(trifluoromethyl)-N-[2-(trifluoromethyl)pyridin-4-yl]-1H-pyrazole-4-carboxamide (Compound A) hydrate, Form I]		No indication of a solid-state form change
